{"source": "patent US5998521A", "about": "“Aqueous fluoropolymer compositions and method of preparing the same” (3M Innovative Properties Company, priority 1996, dated 1999)", "key": {"[1]": {"experiment": "Bacterial sludge contact test", "procedure": "(§1) The environmental stability of C6 F13 CF(CF3)COO^- NH4^+ was investigated under ambient conditions using a bacterial sludge contact test. In this test, bacterial sludge was obtained from the municipal waste treatment plant at Pig's Eye, Minn., the sludge was centrifuged to collect the water-insoluble high density solids, and was reconstituted in water to a standard level of about 2000 ppm of total suspended solids. A 5 mL aliquot of the 2000 ppm sludge in water was placed in each of several 20 mL vials, and enough of the carboxylate salt was added to each vial to achieve a concentration of about 496 ppm (1 millimolar). Each vial was tightly capped with a septum cap and was allowed to stand at room temperature. At intervals, the concentrations of perfluoroolefin and perfluoromonohydride gases in each headspace were measured by removing a gas sample from the space over the liquid, using a Hewlitt Packard Gas Chromatograph with a headspace sampling accessory. The peak areas determined from each gas sample were compared to a standard series made by placing increasing concentrations of a defined mixture of perfluoroolefin and perfluoromonohydride in water in the same types of vials, and subjecting the headspaces in the vials to the same analytical procedure. Results, given below, state the complete conversion relative to theoretical percent of the amount of perfluoroolefin/perfluoromonohydride mixture formed relative to that expected from complete conversion of the salt to volatile fluorocarbons. A control experiment using water with no sludge was also run at the 28 day test point."}, "bacterial sludge": {"system": "bacterial sludge", "experiment": "Bacterial sludge contact test", "settings": "28 days, ambient conditions", "procedure": "as §1"}, "[2]": {"experiment": "Thermogravimetric analysis of neat perfluorocarboxylate salts", "format": "physicochemical", "settings": "neat salt, nitrogen, 10° C./min", "from_the_text": "Thermal degradation measurements were made on a series of neat perfluorocarboxylate salts, including several α-branched open chain structures (Examples N2-N9), a primarily linear open chain structure (Example N10-Fluorad™ FC-143 Fluorochemical Surfactant, commercially available from 3M Company, St. Paul, Minn.), and a closed chain (i.e., cyclic) structure (Example N11--made by the electrochemical fluorination of benzoic acid and hydrolysis in the presence of KOH, as described in U.S. Pat. No. 2,567,011 (Diesslin et al.)).\nThe perfluorocarboxylate salts were tested using a Perkin-Elmer TGA 7 thermogravimetric analysis apparatus and a salt sample size of approximately 5 mg, a heating rate of 10° C./min, and a nitrogen gas flow rate of 40-45 mL/min. Using the TGA 7 software, the following temperatures were recorded: (1) the onset temperature of decomposition, (2) the temperature at which 50% of the sample weight was lost, and (3) the temperature at which 90% of the sample weight was lost."}}, "data": [{"smiles": "O=C(O)C(F)(C(F)(F)F)C(F)(F)C(F)(F)C(F)(F)C(F)(F)C(F)(F)C(F)(F)F", "note": "(stereo not shown) [Example M16, C6 F13 CF(CF3)COO^- H4 N^+]", "values": [{"measurement": "percent perfluoroolefin/perfluoromonohydride formed at 672 h, 1000 µM", "setting": "[1]; Day 28, no sludge", "result": 32, "unit": "%"}, {"measurement": "percent perfluoroolefin/perfluoromonohydride formed at 24 h, 1000 µM", "setting": "[1]; bacterial sludge, Day 1, with sludge", "result": 4, "unit": "%"}, {"measurement": "percent perfluoroolefin/perfluoromonohydride formed at 96 h, 1000 µM", "setting": "[1]; bacterial sludge, Day 4, with sludge", "result": 13, "unit": "%"}, {"measurement": "percent perfluoroolefin/perfluoromonohydride formed at 168 h, 1000 µM", "setting": "[1]; bacterial sludge, Day 7, with sludge", "result": 23, "unit": "%"}, {"measurement": "percent perfluoroolefin/perfluoromonohydride formed at 336 h, 1000 µM", "setting": "[1]; bacterial sludge, Day 14, with sludge", "result": 44, "unit": "%"}, {"measurement": "percent perfluoroolefin/perfluoromonohydride formed at 672 h, 1000 µM", "setting": "[1]; bacterial sludge, Day 28, with sludge", "result": 70, "unit": "%"}, {"measurement": "effect of sludge on amount of perfluoroolefin/perfluoromonohydride", "setting": "bacterial sludge", "result": "more than doubled"}, {"measurement": "Temperature for: 50% loss", "setting": "[2]", "result": 179, "unit": "°C"}, {"measurement": "Temperature for: 90% loss", "setting": "[2]", "result": 193, "unit": "°C"}, {"measurement": "Temperature for: Onset", "setting": "[2]", "result": 165, "unit": "°C"}]}]}
